Measurements from PubChem BioAssay AID248 (DTP/NCI, 2004).
Where “and” joins values, the source holds several entries; their conditions need not be identical. Identical values can stand only once. Toxic doses and inconclusive results are not listed.

Test system: L1210 leukemia ip in BDF1 mice, survival T/C
Assay: NCI In Vivo Anticancer Drug Screen. Data for tumor model L1210 Leukemia (intraperitoneal) in B6D2F1 (BDF1) mice
Details: higher = longer survival
Outline: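 Transplantable tumor model; survival measured in treated vs vehicle control mice. Value = treated/control.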

[1] = endpoint: mean survival time, dose: 75.0 mg/kg/injection, schedule: Q01DX001 (ip), vehicle: carboxymethylcellulose (CMC)
[2] = endpoint: mean survival time, dose: 150.0 mg/kg/injection, schedule: Q01DX001 (ip), vehicle: carboxymethylcellulose (CMC)
[3] = endpoint: mean survival time, dose: 300.0 mg/kg/injection, schedule: Q01DX001 (ip), vehicle: carboxymethylcellulose (CMC)
[4] = endpoint: mean survival time, dose: 100.0 mg/kg/injection, schedule: Q04DX002 (ip), vehicle: saline with Tween-80
[5] = endpoint: mean survival time, dose: 100.0 mg/kg/injection, schedule: Q01DX001 (ip), vehicle: carboxymethylcellulose (CMC)
[6] = endpoint: mean survival time, dose: 200.0 mg/kg/injection, schedule: Q01DX001 (ip), vehicle: carboxymethylcellulose (CMC)
[7] = endpoint: mean survival time, dose: 400.0 mg/kg/injection, schedule: Q01DX001 (ip), vehicle: carboxymethylcellulose (CMC)
[8] = endpoint: mean survival time, dose: 100.0 mg/kg/injection, schedule: Q01DX009 (ip), vehicle: saline
[9] = endpoint: mean survival time, dose: 200.0 mg/kg/injection, schedule: Q01DX009 (ip), vehicle: saline
[10] = endpoint: mean survival time, dose: 400.0 mg/kg/injection, schedule: Q01DX009 (ip), vehicle: saline
[11] = endpoint: mean survival time, dose: 100.0 mg/kg/injection, schedule: Q04DX003 (ip), vehicle: saline
[12] = endpoint: mean survival time, dose: 200.0 mg/kg/injection, schedule: Q04DX003 (ip), vehicle: saline
[13] = endpoint: mean survival time, dose: 400.0 mg/kg/injection, schedule: Q04DX003 (ip), vehicle: saline
[14] = endpoint: mean survival time, dose: 100.0 mg/kg/injection, schedule: Q04DX003 (ip), vehicle: Klucel (hydroxypropylcellulose) (HPC)
[15] = endpoint: mean survival time, dose: 200.0 mg/kg/injection, schedule: Q04DX003 (ip), vehicle: Klucel (hydroxypropylcellulose) (HPC)
[16] = endpoint: mean survival time, dose: 400.0 mg/kg/injection, schedule: Q04DX003 (ip), vehicle: Klucel (hydroxypropylcellulose) (HPC)
[17] = endpoint: mean survival time, dose: 50.0 mg/kg/injection, schedule: Q01DX001 (ip), vehicle: carboxymethylcellulose (CMC)
[18] = endpoint: mean survival time, dose: 100.0 mg/kg/injection, schedule: Q01DX009 (ip), vehicle: saline with Tween-80
[19] = endpoint: mean survival time, dose: 200.0 mg/kg/injection, schedule: Q01DX009 (ip), vehicle: saline with Tween-80
[20] = endpoint: mean survival time, dose: 100.0 mg/kg/injection, schedule: Q01DX001 (ip), vehicle: saline
[21] = endpoint: mean survival time, dose: 200.0 mg/kg/injection, schedule: Q01DX001 (ip), vehicle: saline
[22] = endpoint: mean survival time, dose: 400.0 mg/kg/injection, schedule: Q01DX001 (ip), vehicle: saline

With `CN(C)N=Nc1cccc(C(N)=O)c1` the T/C (endpoint: mean survival time, dose: 5.0 mg/kg/injection, schedule: Q01DX009 (ip), vehicle: Klucel (hydroxypropylcellulose) (HPC)) was 104 % of control, the T/C (endpoint: mean survival time, dose: 10.0 mg/kg/injection, schedule: Q01DX009 (ip), vehicle: Klucel (hydroxypropylcellulose) (HPC)) was 115 % of control and the T/C (endpoint: mean survival time, dose: 20.0 mg/kg/injection, schedule: Q01DX009 (ip), vehicle: Klucel (hydroxypropylcellulose) (HPC)) was 121 % of control. For the same compound, the T/C (endpoint: median survival time, dose: 39.0 mg/kg/injection, schedule: Q01DX009 (ip), vehicle: steriod suspending solution) was 150 % of control, the T/C (endpoint: median survival time, dose: 65.0 mg/kg/injection, schedule: Q01DX001 (ip), vehicle: steriod suspending solution) was 105 % of control and the T/C (endpoint: median survival time, dose: 65.0 mg/kg/injection, schedule: Q01DX009 (ip), vehicle: steriod suspending solution) was 95 % of control. For the same compound, the T/C (endpoint: median survival time, dose: 108.0 mg/kg/injection, schedule: Q01DX001 (ip), vehicle: steriod suspending solution) was 120 % of control and the T/C (endpoint: median survival time, dose: 180.0 mg/kg/injection, schedule: Q04DX003 (ip), vehicle: steriod suspending solution) was 105 % of control.

For `COc1cc2c(cc1NC(=O)C(F)(F)F)-c1ccc(NC(=O)C(F)(F)F)cc1C2`, the T/C [1] was 88 % of control, the T/C [2] was 98 % of control and the T/C [3] was 90 % of control.

`N=C(N)S/C=C/C(=O)O` was tested, and the T/C (endpoint: mean survival time, dose: 25.0 mg/kg/injection, schedule: Q04DX002 (ip), vehicle: saline with Tween-80) was 96 % of control, the T/C (endpoint: mean survival time, dose: 50.0 mg/kg/injection, schedule: Q04DX002 (ip), vehicle: saline with Tween-80) was 96 % of control and the T/C [4] was 96 % of control and 98 % of control.

`O=C(O)C1C2CCC(O2)C1C(=O)Nc1ccccc1` (configuration not stated) was tested, and the T/C [1] was 102 % of control, the T/C [2] was 102 % of control and the T/C [3] was 101 % of control.

`CCC1([N+](=O)[O-])COP(=O)(N2CC2C)OC1` (configuration not stated) was tested, and the T/C [5] was 98 % of control, the T/C [6] was 96 % of control and the T/C [7] was 98 % of control.

For `O=C(Nc1cccc(C2=NCCCN2)c1)c1ccc(C(=O)Nc2cccc(C3=NCCCN3)c2)cc1`, the T/C (endpoint: mean survival time, dose: 0.1 mg/kg/injection, schedule: Q01DX Z (ip), vehicle: saline) was 95 % of control, the T/C (endpoint: mean survival time, dose: 0.2 mg/kg/injection, schedule: Q01DX Z (ip), vehicle: saline) was 100 % of control and the T/C (endpoint: mean survival time, dose: 0.3 mg/kg/injection, schedule: Q01DX Z (ip), vehicle: saline) was 97 % of control. The T/C (endpoint: mean survival time, dose: 0.5 mg/kg/injection, schedule: Q01DX Z (ip), vehicle: saline) was 97 % of control.

`CCC(Cc1ccccc1Br)C1=NC(C)(C)CO1` (configuration not stated) was tested, and the T/C [8] was 90 % of control, the T/C [11] was 105 % of control and the T/C [9] was 90 % of control. For the same compound, the T/C [12] was 107 % of control, the T/C [10] was 106 % of control and the T/C [13] was 100 % of control.

`CC[As](=O)(O)c1ccc([N+](=O)[O-])cc1` was tested, and the T/C (endpoint: mean survival time, dose: 100.0 mg/kg/injection, schedule: Q01DX001 (ip), vehicle: saline with Tween-80) was 101 % of control.

In the case of `Cc1nc2ccc(NC(=O)c3ccccc3)cc2o1`, the T/C [14] is reported as 105 % of control, the T/C [15] is reported as 105 % of control and the T/C [16] is reported as 100 % of control.

For `Cc1ccc(NC(=O)N(CCO)N=O)cc1`, the T/C (endpoint: mean survival time, dose: 12.5 mg/kg/injection, schedule: Q01DX001 (ip), vehicle: carboxymethylcellulose (CMC)) was 110 % of control, the T/C (endpoint: mean survival time, dose: 25.0 mg/kg/injection, schedule: Q01DX001 (ip), vehicle: carboxymethylcellulose (CMC)) was 105 % of control and the T/C [17] was 103 % of control and 108 % of control. The T/C [5] was 100 % of control.

`Cn1nc(NC(=O)C(F)(F)F)c2ncc(-c3ccccc3)nc21` was tested, and the T/C [18] was 96 % of control and the T/C [19] was 96 % of control.

`CC1=CC2=NC(=O)C(c3ccccc3)C(=O)N2C=C1` (configuration not stated) was tested, and the T/C (endpoint: mean survival time, dose: 100.0 mg/kg/injection, schedule: Q01DX009 (ip), vehicle: Klucel (hydroxypropylcellulose) (HPC)) was 90 % of control, the T/C [14] was 90 % of control and the T/C (endpoint: mean survival time, dose: 200.0 mg/kg/injection, schedule: Q01DX009 (ip), vehicle: Klucel (hydroxypropylcellulose) (HPC)) was 100 % of control. The T/C [15] was 103 % of control, the T/C (endpoint: mean survival time, dose: 400.0 mg/kg/injection, schedule: Q01DX009 (ip), vehicle: Klucel (hydroxypropylcellulose) (HPC)) was 86 % of control and the T/C [16] was 97 % of control.

In the case of `O=NN(CCCl)C(=O)NC12CC3CC(CC(C3)C1)C2`, the T/C (endpoint: mean survival time, dose: 62.0 mg/kg/injection, schedule: Q01DX001 (ip), vehicle: carboxymethylcellulose (CMC)) is reported as 270 % of control, the T/C (endpoint: mean survival time, dose: 93.0 mg/kg/injection, schedule: Q01DX001 (ip), vehicle: carboxymethylcellulose (CMC)) is reported as 250 % of control and the T/C (endpoint: mean survival time, dose: 125.0 mg/kg/injection, schedule: Q01DX001 (ip), vehicle: carboxymethylcellulose (CMC)) is reported as 255 % of control. The T/C (endpoint: mean survival time, dose: 187.0 mg/kg/injection, schedule: Q01DX001 (ip), vehicle: carboxymethylcellulose (CMC)) was 182 % of control.

In the case of `Cn1c2c(c(=O)n(C)c1=O)C(=Nc1ccccc1)C(=O)N2`, the T/C [20] is reported as 101 % of control, the T/C [21] is reported as 104 % of control and the T/C [22] is reported as 96 % of control.

With `CCCC(C(CC)CNC(=O)Nc1cccc2ccccc12)N(C)C(=O)Nc1cccc2ccccc12` (configuration not stated) the T/C [17] was 109 % of control, the T/C [5] was 102 % of control and the T/C [6] was 103 % of control. The T/C [7] was 96 % of control.

With `CC(=O)c1cc(C(C)=O)c2cc(C)cc(O)c2c1O` the T/C [20] was 103 % of control.

`Cc1c(N)nc(=S)[nH]c1C(=O)O` was tested, and the T/C (endpoint: mean survival time, dose: 50.0 mg/kg/injection, schedule: Q01DX001 (ip), vehicle: Klucel (hydroxypropylcellulose) (HPC)) was 95 % of control, the T/C (endpoint: mean survival time, dose: 50.0 mg/kg/injection, schedule: Q04DX003 (ip), vehicle: Klucel (hydroxypropylcellulose) (HPC)) was 91 % of control and the T/C (endpoint: mean survival time, dose: 100.0 mg/kg/injection, schedule: Q01DX001 (ip), vehicle: Klucel (hydroxypropylcellulose) (HPC)) was 97 % of control. The T/C [14] was 105 % of control, the T/C (endpoint: mean survival time, dose: 200.0 mg/kg/injection, schedule: Q01DX001 (ip), vehicle: Klucel (hydroxypropylcellulose) (HPC)) was 106 % of control and the T/C [15] was 94 % of control.

For `CCCCCC(=O)/C=C/c1ccc(C)cc1`, the T/C [11] was 102 % of control, the T/C [12] was 100 % of control and the T/C [13] was 112 % of control.

In the case of `ON=C1CCCCC1`, the T/C (endpoint: mean survival time, dose: 75.0 mg/kg/injection, schedule: Q01DX009 (ip), vehicle: other) is reported as 95 % of control, the T/C [20] is reported as 88 % of control and the T/C [18] is reported as 96 % of control. The T/C (endpoint: mean survival time, dose: 100.0 mg/kg/injection, schedule: Q04DX002 (ip), vehicle: other) was 111 % of control, the T/C [4] was 97 % of control and the T/C (endpoint: mean survival time, dose: 150.0 mg/kg/injection, schedule: Q01DX009 (ip), vehicle: other) was 105 % of control. For the same compound, the T/C [21] was 96 % of control, the T/C [19] was 94 % of control and the T/C (endpoint: mean survival time, dose: 200.0 mg/kg/injection, schedule: Q04DX002 (ip), vehicle: other) was 97 % of control. The T/C (endpoint: mean survival time, dose: 200.0 mg/kg/injection, schedule: Q04DX002 (ip), vehicle: saline with Tween-80) was 94 % of control, the T/C (endpoint: mean survival time, dose: 300.0 mg/kg/injection, schedule: Q01DX009 (ip), vehicle: other) was 94 % of control and the T/C [22] was 93 % of control. The T/C (endpoint: mean survival time, dose: 400.0 mg/kg/injection, schedule: Q01DX009 (ip), vehicle: saline with Tween-80) was 91 % of control, the T/C (endpoint: mean survival time, dose: 400.0 mg/kg/injection, schedule: Q04DX002 (ip), vehicle: other) was 97 % of control and the T/C (endpoint: mean survival time, dose: 400.0 mg/kg/injection, schedule: Q04DX002 (ip), vehicle: saline with Tween-80) was 102 % of control.

For `COc1cc(SSc2ccc(N)c(OC)c2)ccc1N`, the T/C [1] was 105 % of control and the T/C [2] was 88 % of control.
